Laboratory results: US9821077B2, “Diagnostic substances for optical imaging testing on the basis of nanoparticular formulations” (NANOPET PHARMA GMBH, priority 2007, dated 2017)
Values joined by “and” are separate entries in the source; they are usually repeats but may differ in a detail not shown here. Identical values can stand only once.

Experiments:
[1] = in DMSO, used as the standard; cited from earlier work
plasma protein = experiment: Plasma protein binding by wavelength shift in the absorption spectrum; format: in vitro ADME
From the text: For this purpose, spectra of 700 nm to 900 nm of ICG in water and in plasma were compared with spectra of ICG micelles in water and in plasma.

[2] = Stability test, absorption as a function of time; format: physicochemical; conditions: purely aqueous formulation, 0.0005% ICG, room temperature, 7 days
Experimental: For the stability test the absorption in the maximum of the various formulations was measured as a function of time. For this purpose, 0.0005% ICG solutions were prepared and stored at room temperature.
For the stability test the absorption spectra of the various formulations were measured as a function of time.

[3] = Fluorescence measurements, quantum yield; format: physicochemical; conditions: in water; standard ICG in DMSO
Experimental: Fluorescence measurements were carried out by means of a FluoroLog-2 Spectrofluorometer (350 W Xenon lamp) of the company Spex. For this purpose, emission spectra of 700 nm to 900 nm were recorded. The excitation wavelength corresponded to the respective maximum of the formulation in the absorption spectrum (ICG in water λmax=780 nm and ICG micelles λmax=795 nm). Due to the s & r modus of the software DM 3000, the different lamp intensities of the different excitation wavelengths could be taken into account in the evaluation.
The quantum yield is calculated via the surface area below the emission curve. ICG in DMSO was used as the standard (Φ=0.13).
(§1) Fluorescence measurements were carried out by means of a Spectrofluorometer FP-6500 of the company JASCO. For this purpose, emission spectra of 770 to 900 nm were recorded. […] The quantum yield is calculated via the surface area below the emission curve. […]
as §1, §1

[4] = Absorption spectra, absorption maximum; format: physicochemical; conditions: dye in water
Experimental: Absorption spectra in a wavelength range of 700 nm to 900 nm were recorded with a UVIKON 933 Spectrophotometer (company Kontron) in the various solvents. →ICG in water λmax=780 nm ICO micelles λmax=797 nm (FIG. 1A)
Absorption spectra were recorded in a wavelength range of 600 nm to 900 nm with a DU®530 Beckman Spectralphotometer in the various solvents. →ICG in water λmax=779 nm ICG-Cithrol 10 MS micelles λmax=800 nm (FIG. 2A)
Absorption spectra were recorded in a wavelength range of 600 nm to 900 nm with a DU®530 Beckman Spectralphotometer in the various solvents. →ICG in water λmax=779 nm ICG-Crodet S40 LD micelles λmax=800 nm (FIG. 3A)
(§2) Absorption spectra were recorded in a wavelength range of 600 nm to 900 nm with a DU®530 Beckman Spectralphotometer in the various solvents. […]
as §2
Absorption spectra were recorded in a wavelength range of 600 nm to 900 nm with a DU®530 Beckman Spectralphotometer in the various solvents. →NW003.5 in water λmax (monomer)=788 nm NW003.5-Solutol® HS 15 micelles λmax=806 nm (FIG. 6B)
Absorption spectra were recorded in a wavelength range of 600 nm to 900 nm with a DU®530 Beckman Spectra'photometer in the various solvents. →IR-783 in water λmax (Monomer)=775 nm IR-783-Solutol® HS 15 micelles λmax=797 nm (FIG. 7B)

absorption maximum in plasma (plasma protein) [nm]	standardized absorption after storage [2]	fluorescence quantum yield Φ [3]	absorption maximum λmax [4]	SMILES	fluorescence quantum yield Φ of the standard [1]
805	below 10%	0.02	779 nm and 780 nm	CC1(C)C(/C=C/C=C/C=C/C=C2\N(CCCCS(=O)(=O)O)c3ccc4ccccc4c3C2(C)C)=[N+](CCCCS(=O)(=O)[O-])c2ccc3ccccc3c21 [ICG, indocyanine green]	0.12 and 0.13
			775 nm	CC1(C)C(=CC=C2CCCC(C=CC3=[N+](CCCCS(=O)(=O)[O-])c4ccccc4C3(C)C)=C2Cl)N(CCCCS(=O)(=O)[O-])c2ccccc21.[Na+] [IR-783]	
